The subject of series [1] is mature IL-1β release from human monocytes. Description: human monocyte pulse chase assay, inhibition of release of mature IL-1β (called In Vivo Assay). The series is classed as cell-based. The following applies: human monocytes stimulated with fixed S. aureus. As for the experimental part:
In vivo inhibition (IC50) was determined as follows:
Human monocytes were isolated from heparinized leukopheresis units obtained through Biological Specialty Corporation (Lansdale, Pa.). Monocytes were purified by Ficoll-Hupaque (Pharmacia Fine Chemicals, Piscataway, N.J.) gradient centrifugation and more than 95% pure monocyte populations obtained by centrifugal elutriation. The assay was performed on duplicate samples of freshly isolated human monocytes, cultured in suspension at 37° C. and rotated gently in conical bottom polypropylene tubes (Sardstedt Inc., Princeton, N.J.). Human monocytes at a concentration of 5×10^6 cells/mL were resuspended in 1 mL of RPMI 1640 (a common tissue buffer from M. A. Bioproducts, Walkersville, Md.) containing 1% fetal calf serum (FCS) (HyClone, Logan, Utah) and 50 μg/mL gentamycin (Gibco, Grand Island, N.Y.). The cells were treated either with a compound of the invention (i.e. test compound) or with a non-inhibitor (control compound, typically 0.03% DMSO) for 15 minutes and then activated with 0.01% fixed Staphylococcus aureus (The Enzyme Center, Malden, Mass.) for 1 hour. The cells were then centrifuged and resuspended in 1 mL of cysteine, methionine-free RPMI media containing 1% dialyzed FCS (Hyclone). The cells were pretreated with a test compound or control compound for 15 minutes after which 0.01% fixed S. aureus plus 100 μCi Tran 35-S label (ICN, Irvine, Calif.) was added and the cells incubated at 37° C. for 1 hour. After incubation, cells were centrifuged, washed once in phosphate buffer saline and resuspended in 1 mL RPMI containing 1% fetal calf serum. The cells were again pretreated with a test or control compound for 15 minutes and then 0.01% S. aureus for 2 hours. At the end of the incubation, cells were centrifuged and supernates saved for immunoprecipitation. Cells were washed once in phosphate buffer saline and then lysed in RIPA, a continuous cell media buffer containing 2 mM phenylmethylsulfonyl fluoride, 10 mM iodoacetate, 1 μg/mL pepstatin A, 1 μg/mL leupeptin and 0.5 TIU aprotinin.
For the immunoprecipitations, an equal volume of 1% dry milk in RIPA buffer plus 50 μL of resuspended protein A sepharose CL-4B (Pharmacia, Piscataway, N.Y.) was added to supernates and 1 mL of 4% dry milk containing protein A sepharose CL-4B to cell lysates and samples rotated for 30 minutes at 4° C. Beads were then centrifuged down, samples transferred to fresh tubes and incubated overnight with 40 μg rabbit anti-human IL-1β polyclonal antibody (Genzyme, Cambridge, Mass.). The IL-1β proteins were then precipitated with 70 μL protein A sepharose, resuspended in 60 μL SDS sample buffer and run on 15% SGD-PAGE gels. Autoradiography was performed on dried gels and the amount of radioactivity (counts per minute, cpm) quantitated using a Betascope 603 analyzer.
In the monocyte pulse chase assay, each test parameter was run in duplicate. Data was collected from the Beta Scope using a personal computer, then transferred to the VAX system for calculation of mean cpm and standard deviation of the mean. When test compounds were evaluated, the percent inhibition of release of mature IL-1β was calculated as follows:
100×[1-(cells treated with stimuli+test compound-unstimulated cells)/(cells treated with stimuli+control compound-unstimulated cells)]
These % inhibition values were then used to calculate IC50 value for each compound. Since the human monocyte pulse chase assay uses primary cells from different donors, each test compound was run in 2-3 separate experiments, using monocytes from 2-3 different donors.

In another series the target is T1, ICE (IL-1β protease) (Homo sapiens, UniProt P29466).
T1 sequence (P29466 120-297 limits assumed): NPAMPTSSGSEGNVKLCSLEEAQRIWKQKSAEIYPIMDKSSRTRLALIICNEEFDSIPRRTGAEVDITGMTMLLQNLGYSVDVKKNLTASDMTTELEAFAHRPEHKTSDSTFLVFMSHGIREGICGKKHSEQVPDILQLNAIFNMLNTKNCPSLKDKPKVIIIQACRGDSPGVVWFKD
T1 sequence (P29466 317-404 limits assumed): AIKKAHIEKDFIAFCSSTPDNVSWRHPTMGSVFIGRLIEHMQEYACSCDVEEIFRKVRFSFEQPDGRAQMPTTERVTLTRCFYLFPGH
Description: modified in vitro enzyme assay, reversible Ki* for ICE (Succinyl-Tyr-Val-Ala-Asp-amino methylcoumarin substrate). The series is classed as biochemical. The following applies: aldehydes. As for the experimental part:
Second order rates of inactivation were obtained by using the enzyme assay described in Dolle, R. E.; et al., J. Med Chem. (1994), 37, 563. […] In the case of these reversible inhibitors, the in vitro assay was modified to obtain the reversible Ki * as follows:
Ki * values for reversible inhibitors were determined by preincubating ICE with various concentrations of inhibitor in 10 mM HEPES (a common laboratory buffer; pH 7.5), 25% glycerol, 1 mM dithiothreitol for 30 minutes at 37 ° C. in a polystyrene 96-well plate. Remaining ICE activity was measured by adding 10 uM Succinyl-Tyrosine-Valine-Alanine-Aspartic acid-amino methylcoumarin (Bachem Bioscience, Inc.) and monitoring the increase in fluorescence at 37° C. using a Fluoroskan II fluorescence plate reader. The Ki * was calculated from a plat of 1/v versus I as described previously (Morrison, J. F. and Cleland, W. W. (1983) Biochemistry 22, 5507-5513.

Series [2] relates to IL-1 receptor. The following applies: cited from earlier work.
Series [3] has as its system IL-1 receptor. The following applies: colitis model; cited from earlier work.
The test system of series [4] is IL-1 receptor. The following applies: open-label human trial, subcutaneous; cited from earlier work.
The subject of series [5] is acute myelogenous leukemia cells. Particulars: cited from earlier work.
The test system of series [6] is chronic myelogenous leukemia cells. The following applies: cells removed from chronic myelogenous leukemia patients; cited from earlier work.
For series [7], the system named is IL-1 receptor. The following applies: PG-APS arthritis, rats; cited from earlier work.

Usually IC50 stands for the point on the concentration scale where inhibition reaches its midpoint. A higher IC50 goes with weaker potency. For `O=C[C@H](CC(=O)O)NC(=O)[C@@H]1CCCN2C(=O)CC[C@H](NC(=O)c3ccccc3)C(=O)N12` [Example 21], the IC50 in series [1] was less than 10 µM. Also, the “mode of inhibition / binding kinetics” value on ICE (IL-1β protease) was “reversible inhibitors and display slow binding kinetics”.
With “Antril: The IL-1 receptor antagonist, Antril (Synergen)”, in the series on IL-1 receptor [2] (after three weeks of daily treatment, subcutaneous), the “joint swelling and disease activity” value is “decrease in joint swelling and less disease activity”. Also, in the series with IL-1 receptor [2] (patients with active rheumatoid arthritis, subcutaneous 20, 70 and 200 mg), the antiinflammatory activity result is reported as “significant antiinflammatory activity”. For the same compound, the “effectiveness by dosing frequency” value in the series with IL-1 receptor [2] (subcutaneous 20, 70 and 200 mg) is recorded as “most effective when taken daily”.
In turn, `O=C[C@H](CC(=O)O)NC(=O)[C@@H]1CCCN2C(=O)CC[C@H](NC(=O)OCc3ccccc3)C(=O)N12` [Example 2] showed an IC50 in series [1] of less than 10 µM. For the same compound, at ICE (IL-1β protease), the “mode of inhibition / binding kinetics” value was “reversible inhibitors and display slow binding kinetics”.
For the compound IL-1ra: IL-1 receptor antagonist, in the series with IL-1 receptor [3], the “tissue necrosis and number of inflammatory cells in the colon” value is “reduced tissue necrosis and the number of inflammatory cells in the colon”. Moreover, the “efficacy in Rheumatoid Arthritis” value in the series on IL-1 receptor [4] was “shows efficacy”. Also, the blast proliferation inhibition entry in series [5] was “Inhibition of Acute Myelogenous Leukemia Blast Proliferation”. The colony growth inhibition result in series [6] is “inhibit colony growth”. Also, in the series on IL-1 receptor [7], the joint swelling entry was “supresses joint swelling”.
As for `O=C[C@H](CC(=O)O)NC(=O)[C@@H]1CCCN2C(=O)CC[C@H](NC(=O)c3ccc(OCC(=O)O)cc3)C(=O)N12` [Example 22], the 50% inhibitory concentration (IC50) in series [1] is less than 10 µM. In addition, the “mode of inhibition / binding kinetics” value at ICE (IL-1β protease) was “reversible inhibitors and display slow binding kinetics”.

Values taken from patent publication US5639745A, “Fused-bicyclic lactams as interleukin-1β converting enzyme inhibitors” (Sanofi, priority 1995, dated 1997).
